Measurements: patent US20120165339A1, “CYCLOPROPANE DERIVATIVES” (EISAI R&D MANAGEMENT CO., LTD., priority 2010, published 2012)
Read-outs that look alike come from different tables or passages of the source.

Experiments:
OX1 [1] = target: T1, OX1 (Homo sapiens, UniProt O43613); test: Orexin-receptor binding ability, [125I]-OX-A, CHO cell membranes expressing OX1; design: expressed in transfected cells; host or cells: CHO cells (membrane preparation)
T1 sequence (O43613 1-425): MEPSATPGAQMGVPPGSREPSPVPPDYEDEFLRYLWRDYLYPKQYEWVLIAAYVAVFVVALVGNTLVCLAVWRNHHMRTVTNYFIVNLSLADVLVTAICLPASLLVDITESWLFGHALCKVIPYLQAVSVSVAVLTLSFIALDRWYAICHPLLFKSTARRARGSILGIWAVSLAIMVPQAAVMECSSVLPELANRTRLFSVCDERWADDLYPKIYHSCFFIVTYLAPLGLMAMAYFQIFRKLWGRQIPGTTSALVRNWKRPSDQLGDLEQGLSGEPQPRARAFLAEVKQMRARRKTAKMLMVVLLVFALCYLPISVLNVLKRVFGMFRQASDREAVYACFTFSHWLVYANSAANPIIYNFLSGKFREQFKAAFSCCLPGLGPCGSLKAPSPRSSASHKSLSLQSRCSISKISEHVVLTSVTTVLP
Protocol: (§1) The assay was carried out using a 96-well Wheat Germ Agglutinin Flash Plate (PerkinElmer). The volume in a single assay well was 100 ul, and the composition of the reaction solution was as follows:
(§2) 25 mM HEPES (pH 7.5), 1 mM CaCl2, 4.5 mM MgCl2, 0.5% BSA (bovine serum albumin), 0.1% sodium azide, 0.05% Tween-20, and 0.2% DMSO.
Cell membranes were prepared from recombinant CHO cells that expressed OX2 or OX1. The cell membranes were used in an amount of 5 μg protein/assay. […] Finally, the radioactivity of each well was measured using a scintillation counter (TopCount, PerkinElmer). The obtained results are shown in terms of IC50 values (nM) in the following table.

OX2 [2] = target: T2, OX2 (Homo sapiens, UniProt O43614); test: Orexin-receptor binding ability, [125I]-OX-A, CHO cell membranes expressing OX2; design: expressed in transfected cells; host or cells: CHO cells (membrane preparation)
T2 sequence (O43614 1-444): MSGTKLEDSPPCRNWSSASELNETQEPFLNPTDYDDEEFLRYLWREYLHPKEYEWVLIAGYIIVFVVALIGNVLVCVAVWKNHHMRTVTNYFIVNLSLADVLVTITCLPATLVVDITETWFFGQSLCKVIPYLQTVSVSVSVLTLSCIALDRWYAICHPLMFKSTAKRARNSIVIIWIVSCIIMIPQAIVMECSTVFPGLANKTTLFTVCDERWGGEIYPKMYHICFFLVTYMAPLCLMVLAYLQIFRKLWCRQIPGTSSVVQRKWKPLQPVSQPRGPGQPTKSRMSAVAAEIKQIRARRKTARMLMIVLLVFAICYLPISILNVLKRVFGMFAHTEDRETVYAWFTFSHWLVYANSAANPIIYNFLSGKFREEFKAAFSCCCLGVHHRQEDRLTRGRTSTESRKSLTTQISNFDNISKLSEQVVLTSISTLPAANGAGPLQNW
Protocol: as §1, §2
Cell membranes were prepared from recombinant CHO cells that expressed OX2 or OX1. The cell membranes were used in an amount of 5 μg protein/assay. Test compound in various concentrations, and 0.2 nM [^125I]-OX-A as tracer were added to the cell membranes, and then allowed to react at room temperature for 30 minutes. After completion of the reaction, the reaction solution as a whole was discarded, and the wells were then washed once with 200 ul of wash buffer (25 mM HEPES (pH 7.5), 1 mM CaCl2, 5 mM MgCl2, 0.5% BSA, 0.1% sodium azide, 0.05% Tween-20, and 525 mM sodium chloride). Finally, the radioactivity of each well was measured using a scintillation counter (TopCount, PerkinElmer). The obtained results are shown in terms of IC50 values (nM) in the following table.

OX1 [3] = target: T1, OX1; test: Antagonism PLAP reporter assay, HEK-293 cells expressing human OX1; assay type: cell-based; design: expressed in transfected cells; host or cells: HEK-293 cell line, expression vector pBabeCLIH; conditions: HEK-293, 1 nM human OX-A; IC50 converted to Ki by Cheng-Prusoff equation
Protocol: (§3) The antagonistic function of the compound of the present invention to prevent the activation of OX2 and OX1 by orexin-A (OX-A), which is a natural peptide agonist, was measured using a cell-based reporter assay. A HEK-293 cell line expressing genetically recombinant human OX2 (accession No. NM_001526.3) or a HEK-293 cell line expressing genetically recombinant human OX1 (accession No. NM_001525.2), which had pBabeCLIH as expression vector, was used. The cells were plated at a density of 10,000 cells/well onto a non-coated 96-well plate in Dulbecco's modified Eagle medium (Sigma Cat No. D6046: 10% v/v heat-inactivated fetal bovine serum was contained). The cells were cultured at 37° C. overnight, so that they could adhere to the plate. On the following day, cells were incubated with a compound of the present invention dissolved in Dulbecco's modified Eagle medium (Sigma Cat No. A8806: 0.1% w/v bovine serum albumin was contained), and added to the cell plate to reach a final concentration of 0.1% dimethyl sulfoxide.
(§4) The thus obtained mixture was incubated at room temperature for 1 hour. Thereafter, human OX-A and forskolin were dissolved in the same medium as described above, which contained fetal bovine serum albumin, and the medium was then added to the cells, resulting in a final concentration of 300 nM forskolin. Subsequently, the cells were cultured at 37° C. for approximately 18 to 24 hours. During the culture, as a result of activation of the orexin receptor and subsequent dose-dependent increase in intracellular calcium concentration, a reporter enzyme, placental alkaline phosphatase (PLAP), was expressed under the control of a CRE x4+VIP promoter in a pBabeCLcre4vPdNN vector and secreted into the culture medium supernatant. On the following day, reporter enzyme activity was detected by mixing 5 ul of the culture medium supernatant with 20 ul of detection buffer (containing 1.34 g/L sodium bicarbonate, 1.27 g/L sodium carbonate and 0.2 g/L magnesium sulfate heptahydrate in water) and 25 ul of Lumi-Phos530 reagent (Wako Pure Chemical Industries Ltd.), followed by incubating the obtained mixture light-protected at room temperature for 2 hours, before performing luminescence measurement (ARVO Reader, PerkinElmer). The Kd value of human OX-A with respect to each receptor was measured by titration from 0 to 300 nM. Then, the IC50 value of the compound of the present invention with respect to the activity of 1 nM human OX-A was converted into a Ki value (nM) using the Cheng-Prusoff equation.

OX2 [4] = target: T2, OX2; test: Antagonism PLAP reporter assay, HEK-293 cells expressing human OX2; assay type: cell-based; design: expressed in transfected cells; host or cells: HEK-293 cell line, expression vector pBabeCLIH; conditions: HEK-293, 1 nM human OX-A; IC50 converted to Ki by Cheng-Prusoff equation
Protocol: as §3, §4

[5] = membranes of recombinant CHO cells, 0.2 nM [125I]-OX-A tracer, read-out: OX1 (IC50)
[6] = membranes of recombinant CHO cells, 0.2 nM [125I]-OX-A tracer, read-out: OX2 (IC50)

Compound	IC50 (OX1 [1])	IC50 (OX2 [2])	Ki (OX1 [3])	Ki (OX2 [4])	IC50 (OX1 [1]; [5])	IC50 (OX2 [2]; [6])
COc1ccc(OCC2(c3ccccc3)CC2C(=O)Nc2ccc(Cl)cn2)cc1OC (stereo not shown) [Example 6, N-(5-chloropyridin-2-yl)-2-[(3,4-dimethoxyphenyl)oxymethyl]-2-phenylcyclopropanecarboxamide]	19 nM	3 nM	9.8 nM	0.8 nM	–	–
COc1ccc(OCC2(c3ccccc3)CC2C(=O)Nc2nc(C)ns2)cc1OC (stereo not shown) [Example 7, N-(3-methyl-1,2,4-thiadiazol-5-yl)-2-[(3,4-dimethoxyphenyl)oxymethyl]-2-phenylcyclopropanecarboxamide]	–	–	> 816 nM	55.9 nM	1900 nM	43 nM
COc1ccc(OCC2(c3ccccc3)CC2C(=O)Nc2cc(C)no2)cc1OC (stereo not shown) [Example 8, N-(3-methylisoxazol-5-yl)-2-[(3,4-dimethoxyphenyl)oxymethyl]-2-phenylcyclopropanecarboxamide]	–	–	> 816 nM	92.1 nM	1260 nM	17 nM
COc1ccc(OCC2(c3ccccc3)CC2C(=O)Nc2ccc(F)cn2)cc1OC (stereo not shown) [Example 10, N-(5-fluoropyridin-2-yl)-2-[(3,4-dimethoxyphenyl)oxymethyl]-2-phenylcyclopropanecarboxamide]	–	–	68.6 nM	4.2 nM	56 nM	3 nM
COc1ccc(OCC2(c3ccccc3)CC2C(=O)Nc2cncc(Cl)c2)cc1OC (stereo not shown) [Example 11, N-(5-chloropyridin-3-yl)-2-[(3,4-dimethoxyphenyl)oxymethyl]-2-phenylcyclopropanecarboxamide]	–	–	572 nM	48.2 nM	333 nM	29 nM
COc1ccc(OCC2(c3ccccc3)CC2C(=O)Nc2ccncc2Cl)cc1OC (stereo not shown) [Example 14, N-(3-chloropyridin-4-yl)-2-[(3,4-dimethoxyphenyl)oxymethyl]-2-phenylcyclopropanecarboxamide]	–	–	> 816 nM	99 nM	438 nM	46 nM
COc1ccc(OCC2(c3ccccc3)CC2C(=O)Nc2cc(C#N)ccn2)cc1OC (stereo not shown) [Example 18, N-(4-cyanopyridin-2-yl)-2-[(3,4-dimethoxyphenyl)oxymethyl]-2-phenylcyclopropanecarboxamide]	–	–	186 nM	23.7 nM	105 nM	35 nM
COc1ccc(OCC2(c3ccccc3)CC2C(=O)Nc2cc(C)on2)cc1OC (stereo not shown) [Example 21, N-(5-methylisoxazol-3-yl)-2-[(3,4-dimethoxyphenyl)oxymethyl]-2-phenylcyclopropanecarboxamide]	–	–	> 816 nM	77.1 nM	505 nM	28 nM
COc1ccc(OCC2(c3ccccc3)CC2C(=O)Nc2ncc(C)s2)cc1OC (stereo not shown) [Example 22, N-(5-methyl-1,3-thiazol-2-yl)-2-[(3,4-dimethoxyphenyl)oxymethyl]-2-phenylcyclopropanecarboxamide]	–	–	> 816 nM	> 614 nM	296 nM	35 nM
COc1ccc(OCC2(c3ccccc3)CC2C(=O)Nc2nc(C)cs2)cc1OC (stereo not shown) [Example 23, N-(4-methyl-1,3-thiazol-2-yl)-2-[(3,4-dimethoxyphenyl)oxymethyl]-2-phenylcyclopropanecarboxamide]	–	–	624 nM	15.8 nM	847 nM	14 nM
COc1ccc(OCC2(c3ccccc3)CC2C(=O)Nc2cncc(F)c2)cc1OC (stereo not shown) [Example 24, N-(5-fluoropyridin-3-yl)-2-[(3,4-dimethoxyphenyl)oxymethyl]-2-phenylcyclopropanecarboxamide]	–	–	> 816 nM	83.5 nM	805 nM	48 nM
COc1ccc(OCC2(c3ccccc3)CC2C(=O)Nc2ccncc2C(F)(F)F)cc1OC (stereo not shown) [Example 25, N-(3-trifluoromethylpyridin-4-yl)-2-[(3,4-dimethoxyphenyl)oxymethyl]-2-phenylcyclopropanecarboxamide]	–	27 nM	> 816 nM	391 nM	369 nM	–
COc1ccc(OCC2(c3ccccc3)CC2C(=O)Nc2ccc(F)nc2)cc1OC (stereo not shown) [Example 26]	27 nM	43 nM	70 nM	12.8 nM	–	–
COc1ccc(OCC2(c3ccccc3)CC2C(=O)Nc2cccc(F)n2)cc1OC (stereo not shown) [Example 27, N-(6-fluoropyridin-2-yl)-2-[(3,4-dimethoxyphenyl)oxymethyl]-2-phenylcyclopropanecarboxamide]	37 nM	4 nM	98 nM	3.4 nM	–	–
COc1ccc(OCC2(c3ccccc3)CC2C(=O)Nc2cc(Cl)ccn2)cc1OC (stereo not shown) [Example 28, N-(4-chloropyridin-2-yl)-2-[(3,4-dimethoxyphenyl)oxymethyl]-2-phenylcyclopropanecarboxamide]	–	–	73.8 nM	11 nM	38 nM	25 nM
COc1cccc(NC(=O)C2CC2(COc2ccc(OC)c(OC)c2)c2ccccc2)c1 (stereo not shown) [Example 34, N-(3-methoxyphenyl)-2-[(3,4-dimethoxyphenyl)oxymethyl]-2-phenylcyclopropanecarboxamide]	–	–	24 nM	4.5 nM	20 nM	6 nM
